Results as given in PubChem BioAssay (NCI).
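The compound was tested at five concentrations on cells cultured in 96-well plates, with a 48-hour exposure period. TGI denotes the concentration required for complete inhibition of growth.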

Assays:
Assay in all cases: growth of human tumour cells (NCI), 48 h
786-0 renal = test system: 786-0 renal
A498 renal = test system: A498 renal
A549 NSCLC = test system: A549 NSCLC
ACHN renal = test system: ACHN renal
CAKI-1 renal = test system: CAKI-1 renal
CCRF-CEM leukemia = test system: CCRF-CEM leukemia
COLO 205 colon = test system: COLO 205 colon
DLD-1 colon = test system: DLD-1 colon
DMS 114 small cell lung = test system: DMS 114 small cell lung
DMS 273 small cell lung = test system: DMS 273 small cell lung
EKVX NSCLC = test system: EKVX NSCLC
HCC-2998 colon = test system: HCC-2998 colon
HCT-116 colon = test system: HCT-116 colon
HCT-15 colon = test system: HCT-15 colon
HL-60(TB) leukemia = test system: HL-60(TB) leukemia
HOP-18 NSCLC = test system: HOP-18 NSCLC
HOP-62 NSCLC = test system: HOP-62 NSCLC
HOP-92 NSCLC = test system: HOP-92 NSCLC
HT29 colon = test system: HT29 colon
IGROV1 ovarian = test system: IGROV1 ovarian
K-562 leukemia = test system: K-562 leukemia
KM12 colon = test system: KM12 colon
KM20L2 colon = test system: KM20L2 colon
LOX IMVI melanoma = test system: LOX IMVI melanoma
LXFL 529 NSCLC = test system: LXFL 529 NSCLC
M14 melanoma = test system: M14 melanoma
M19-MEL melanoma = test system: M19-MEL melanoma
MALME-3M melanoma = test system: MALME-3M melanoma
MOLT-4 leukemia = test system: MOLT-4 leukemia
NCI-H226 lung = test system: NCI-H226 lung
NCI-H23 lung = test system: NCI-H23 lung
NCI-H460 lung = test system: NCI-H460 lung
NCI-H522 lung = test system: NCI-H522 lung
OVCAR-3 ovarian = test system: OVCAR-3 ovarian
OVCAR-4 ovarian = test system: OVCAR-4 ovarian
OVCAR-5 ovarian = test system: OVCAR-5 ovarian
OVCAR-8 ovarian = test system: OVCAR-8 ovarian
RPMI-8226 leukemia = test system: RPMI-8226 leukemia
RXF 393 renal = test system: RXF 393 renal
RXF-631 renal = test system: RXF-631 renal
SF-268 CNS = test system: SF-268 CNS
SF-295 CNS = test system: SF-295 CNS
SF-539 CNS = test system: SF-539 CNS
SK-MEL-2 melanoma = test system: SK-MEL-2 melanoma
SK-MEL-28 melanoma = test system: SK-MEL-28 melanoma
SK-MEL-5 melanoma = test system: SK-MEL-5 melanoma
SK-OV-3 ovarian = test system: SK-OV-3 ovarian
SN12C renal = test system: SN12C renal
SNB-19 CNS = test system: SNB-19 CNS
SNB-75 CNS = test system: SNB-75 CNS
SNB-78 CNS = test system: SNB-78 CNS
SR leukemia = test system: SR leukemia
SW-620 colon = test system: SW-620 colon
TK-10 renal = test system: TK-10 renal
U251 CNS = test system: U251 CNS
UACC-257 melanoma = test system: UACC-257 melanoma
UACC-62 melanoma = test system: UACC-62 melanoma
UO-31 renal = test system: UO-31 renal
XF 498 CNS = test system: XF 498 CNS
BT-549 breast = test system: BT-549 breast
DU-145 prostate = test system: DU-145 prostate
HS 578T breast = test system: HS 578T breast
MCF7 breast = test system: MCF7 breast
MDA-MB-231 breast = test system: MDA-MB-231 breast
MDA-MB-435 = test system: MDA-MB-435
MDA-N = test system: MDA-N
NCI/ADR-RES ovarian = test system: NCI/ADR-RES ovarian
PC-3 prostate = test system: PC-3 prostate
T-47D breast = test system: T-47D breast

COC(=O)C(C(=O)C(=O)Nc1ccc(Br)cc1)c1nc2ccc(Cl)cc2[nH]c1=O (stereo not drawn)
TGI (786-0 renal): > 100 µM
TGI (A498 renal): > 100 µM
TGI (A549 NSCLC): > 100 µM
TGI (ACHN renal): > 100 µM
TGI (CAKI-1 renal): > 100 µM
TGI (CCRF-CEM leukemia): > 100 µM
TGI (COLO 205 colon): > 61.3 µM
TGI (DLD-1 colon): > 100 µM
TGI (DMS 114 small cell lung): > 100 µM
TGI (DMS 273 small cell lung): > 100 µM
TGI (EKVX NSCLC): > 100 µM
TGI (HCC-2998 colon): > 100 µM
TGI (HCT-116 colon): > 100 µM
TGI (HCT-15 colon): > 55.9 µM
TGI (HL-60(TB) leukemia): > 100 µM
TGI (HOP-18 NSCLC): > 100 µM
TGI (HOP-62 NSCLC): > 100 µM
TGI (HOP-92 NSCLC): > 100 µM
TGI (HT29 colon): > 72.2 µM
TGI (IGROV1 ovarian): > 100 µM
TGI (K-562 leukemia): > 100 µM
TGI (KM12 colon): > 100 µM
TGI (KM20L2 colon): > 100 µM
TGI (LOX IMVI melanoma): > 100 µM
TGI (LXFL 529 NSCLC): > 100 µM
TGI (M14 melanoma): > 100 µM
TGI (M19-MEL melanoma): > 100 µM
TGI (MALME-3M melanoma): > 100 µM
TGI (MOLT-4 leukemia): > 100 µM
TGI (NCI-H226 lung): > 100 µM
TGI (NCI-H23 lung): > 100 µM
TGI (NCI-H460 lung): > 100 µM
TGI (NCI-H522 lung): > 100 µM
TGI (OVCAR-3 ovarian): > 100 µM
TGI (OVCAR-4 ovarian): > 71.3 µM
TGI (OVCAR-5 ovarian): > 100 µM
TGI (OVCAR-8 ovarian): > 100 µM
TGI (RPMI-8226 leukemia): > 100 µM
TGI (RXF 393 renal): > 100 µM
TGI (RXF-631 renal): > 100 µM
TGI (SF-268 CNS): > 100 µM
TGI (SF-295 CNS): > 100 µM
TGI (SF-539 CNS): > 100 µM
TGI (SK-MEL-2 melanoma): > 100 µM
TGI (SK-MEL-28 melanoma): > 100 µM
TGI (SK-MEL-5 melanoma): > 100 µM
TGI (SK-OV-3 ovarian): > 100 µM
TGI (SN12C renal): > 100 µM
TGI (SNB-19 CNS): > 100 µM
TGI (SNB-75 CNS): > 100 µM
TGI (SNB-78 CNS): > 100 µM
TGI (SR leukemia): > 100 µM
TGI (SW-620 colon): > 41.4 µM
TGI (TK-10 renal): > 100 µM
TGI (U251 CNS): > 100 µM
TGI (UACC-257 melanoma): > 100 µM
TGI (UACC-62 melanoma): > 100 µM
TGI (UO-31 renal): > 100 µM
TGI (XF 498 CNS): > 100 µM

CN1C(c2ccccc2)CC(=NOCc2ccccc2)CC1c1ccccc1 (stereo not drawn)
TGI (786-0 renal): 53.7 µM
TGI (A498 renal): 68.8 µM
TGI (A549 NSCLC): 43 µM
TGI (ACHN renal): 69.1 µM
TGI (BT-549 breast): 30.6 µM
TGI (CAKI-1 renal): > 80 µM
TGI (CCRF-CEM leukemia): 70.8 µM
TGI (COLO 205 colon): 88.6 µM
TGI (DLD-1 colon): > 100 µM
TGI (DMS 114 small cell lung): 33.1 µM
TGI (DMS 273 small cell lung): > 100 µM
TGI (DU-145 prostate): > 100 µM
TGI (EKVX NSCLC): > 69.3 µM
TGI (HCC-2998 colon): > 100 µM
TGI (HCT-116 colon): 37.6 µM
TGI (HCT-15 colon): 49.2 µM
TGI (HL-60(TB) leukemia): 48.8 µM
TGI (HOP-18 NSCLC): > 100 µM
TGI (HOP-62 NSCLC): > 73.3 µM
TGI (HOP-92 NSCLC): 81 µM
TGI (HS 578T breast): > 73.3 µM
TGI (HT29 colon): 62.2 µM
TGI (IGROV1 ovarian): 62.1 µM
TGI (K-562 leukemia): 44.3 µM
TGI (KM12 colon): 47.9 µM
TGI (KM20L2 colon): > 100 µM
TGI (LOX IMVI melanoma): 29.9 µM
TGI (LXFL 529 NSCLC): 30.8 µM
TGI (M14 melanoma): > 78 µM
TGI (M19-MEL melanoma): > 100 µM
TGI (MALME-3M melanoma): > 87.8 µM
TGI (MCF7 breast): > 56.8 µM
TGI (MDA-MB-231 breast): > 100 µM
TGI (MDA-MB-435): 39.2 µM
TGI (MDA-N): > 56.3 µM
TGI (MOLT-4 leukemia): 71.2 µM
TGI (NCI-H226 lung): 84.8 µM
TGI (NCI-H23 lung): 71.5 µM
TGI (NCI-H460 lung): 39.9 µM
TGI (NCI-H522 lung): 56 µM
TGI (NCI/ADR-RES ovarian): 42.4 µM
TGI (OVCAR-3 ovarian): 58.7 µM
TGI (OVCAR-4 ovarian): 48.9 µM
TGI (OVCAR-5 ovarian): > 100 µM
TGI (OVCAR-8 ovarian): 44.9 µM
TGI (PC-3 prostate): > 66.3 µM
TGI (RPMI-8226 leukemia): > 100 µM
TGI (RXF 393 renal): > 84.7 µM
TGI (RXF-631 renal): > 61.9 µM
TGI (SF-268 CNS): 50.4 µM
TGI (SF-295 CNS): > 74.8 µM
TGI (SF-539 CNS): > 75.6 µM
TGI (SK-MEL-2 melanoma): > 95.4 µM
TGI (SK-MEL-28 melanoma): > 76.3 µM
TGI (SK-MEL-5 melanoma): 70.6 µM
TGI (SK-OV-3 ovarian): > 96.9 µM
TGI (SN12C renal): 62 µM
TGI (SNB-19 CNS): > 56.2 µM
TGI (SNB-75 CNS): 62.1 µM
TGI (SNB-78 CNS): > 100 µM
TGI (SR leukemia): 87.1 µM
TGI (SW-620 colon): > 75.4 µM
TGI (T-47D breast): 36 µM
TGI (TK-10 renal): 70.9 µM
TGI (U251 CNS): 55.2 µM
TGI (UACC-257 melanoma): > 97 µM
TGI (UACC-62 melanoma): > 76.3 µM
TGI (UO-31 renal): > 73.7 µM
TGI (XF 498 CNS): > 100 µM
